Active and inactive are the calls of the source. The rule behind the calls is not given here.
Key:
Assay type in all cases: functional
Trypanosoma cruzi [1] = test: In vitro percent inhibition of growth against epimastigote form of Trypanosoma cruzi (Tulahuen strain) at 25 uM
Trypanosoma cruzi [2] = test: In vitro inhibitory dose against epimastigote form of Trypanosoma cruzi Brener strain; settings: read-out: ID50 (the source's name)
Trypanosoma cruzi [3] = test: In vitro inhibitory dose against epimastigote form of Trypanosoma cruzi Tulahuen strain; settings: read-out: ID50 (the source's name)
[4] = biological target: T1, Glutathione reductase, mitochondrial (Homo sapiens) (UniProt P00390); test: In vitro inhibition against human glutathione reductase; IA denotes inactive
T1 sequence (whole entry): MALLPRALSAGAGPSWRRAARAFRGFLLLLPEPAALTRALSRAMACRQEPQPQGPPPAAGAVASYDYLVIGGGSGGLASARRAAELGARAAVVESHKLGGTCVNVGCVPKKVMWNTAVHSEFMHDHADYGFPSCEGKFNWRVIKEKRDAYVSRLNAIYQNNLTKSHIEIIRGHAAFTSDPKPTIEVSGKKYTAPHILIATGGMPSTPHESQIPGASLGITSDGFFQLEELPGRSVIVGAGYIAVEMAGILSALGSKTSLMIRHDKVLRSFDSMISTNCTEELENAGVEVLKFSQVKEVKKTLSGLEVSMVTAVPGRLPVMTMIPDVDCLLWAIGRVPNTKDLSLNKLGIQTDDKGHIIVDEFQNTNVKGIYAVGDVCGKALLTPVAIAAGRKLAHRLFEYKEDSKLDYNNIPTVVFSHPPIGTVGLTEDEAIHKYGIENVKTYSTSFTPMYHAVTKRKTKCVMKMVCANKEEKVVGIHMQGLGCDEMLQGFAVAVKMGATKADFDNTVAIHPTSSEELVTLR

| SMILES | PGI (Trypanosoma cruzi [1]) | other results |
| --- | --- | --- |
| N#Cc1cc2c(cc1N)[n+]([O-])c1ccccc1[n+]2[O-] | 25% | – |
| Cc1ccc2nc3cc(N)c(C#N)cc3nc2c1 | 0% | – |
| COc1ccccc1N1CCN(c2cc3c(cc2C#N)[n+]([O-])c2cc(Cl)ccc2[n+]3[O-])CC1 | 100% | IC50 (Trypanosoma cruzi [2]): 9.5 µM; IC50 (Trypanosoma cruzi [3]): 6.5 µM |
| N#Cc1cc2c(cc1N1CCN(c3cccc(C(F)(F)F)c3)CC1)[n+]([O-])c1ccc(Cl)cc1[n+]2[O-] | 94% | IC50 (Trypanosoma cruzi [2]): 7 µM; IC50 (Trypanosoma cruzi [3]): 6.7 µM |
| Cc1ccc2c(c1)[n+]([O-])c1cc(C#N)c(N)cc1[n+]2[O-] | 5% | – |
| CC(=O)c1cc2c(cc1C)[n+]([O-])c1cc(F)ccc1[n+]2[O-] | 22% | – |
| Cc1cc2c(cc1C)[n+]([O-])c1cc(C(=O)N3CCN(c4ccccc4)CC3)c(C)cc1[n+]2[O-] | 0% | – |
| N#Cc1cc2c(cc1N)[n+]([O-])c1cc(Cl)c(Cl)cc1[n+]2[O-] | 25% | – |
| CC(=O)c1cc2c(cc1C)[n+]([O-])c1cc(Cl)ccc1[n+]2[O-] | 51% | – |
| Cc1cc2c(cc1C)[n+]([O-])c1cc(/C=N/NC(=O)NCCc3ccccc3)ccc1[n+]2[O-] | 17% | – |
| Cc1cc2c(cc1C)[n+]([O-])c1cc(N3CCN(c4ccc([N+](=O)[O-])cc4)CC3)c(C#N)cc1[n+]2[O-] | 0% | – |
| N#Cc1cc2c(cc1N)[n+]([O-])c1ccc(/C=N/NC(=O)NCCc3ccccc3)cc1[n+]2[O-] | 11% | – |
| N#Cc1cc2c(cc1Nc1ccccc1)[n+]([O-])c1ccc(Cl)cc1[n+]2[O-] | 63% | – |
| COC(=O)N/N=C/c1ccc2c(c1)[n+]([O-])c1cc(C)c(C)cc1[n+]2[O-] | 28% | – |
| Cc1cc2c(cc1Sc1ccccc1)[n+]([O-])c1cc(Cl)c(Cl)cc1[n+]2[O-] | 93% | IC50 (Trypanosoma cruzi [2]): 4.5 µM; IC50 (Trypanosoma cruzi [3]): 6.5 µM |
| COCCNC(=O)N/N=C/c1ccc2c(c1)[n+]([O-])c1cc(C#N)c(N)cc1[n+]2[O-] | 20% | – |
| CCN(CC)CCCC(C)Nc1c2ccc(Cl)cc2nc2ccc(OC)cc12 (stereo not drawn) | – | inhibition [4]: inactive |
| Cc1cc2c(cc1C)[n+]([O-])c1cc(NCCCN(C)C)c(C#N)cc1[n+]2[O-] | 1% | – |

| SMILES | PGI (Trypanosoma cruzi [1]) | other results |
| --- | --- | --- |
| Cc1cc2c(cc1C)[n+]([O-])c1cc(C(=O)N3CCN(c4ccc([N+](=O)[O-])cc4)CC3)c(C)cc1[n+]2[O-] | 1% | – |
| CN(C)CCCNc1cc2c(cc1C#N)[n+]([O-])c1cc(Cl)ccc1[n+]2[O-] | 16% | – |
| Cc1cc2c(cc1C(=O)c1ccccc1)[n+]([O-])c1cc(Cl)c(Cl)cc1[n+]2[O-] | 91% | IC50 (Trypanosoma cruzi [2]): 12.5 µM; IC50 (Trypanosoma cruzi [3]): 11.8 µM |
| c1ccc(CNc2nc(NCc3ccccc3)c3nc4ccccc4nc3n2)cc1 | 31% | – |
| Cc1cc2nc3cc(Cl)c(C#N)cc3nc2cc1C | 81% | IC50 (Trypanosoma cruzi [2]): 3 µM; IC50 (Trypanosoma cruzi [3]): 19.6 µM |
| N#Cc1cc2c(cc1N1CCN(Cc3ccc4c(c3)OCO4)CC1)[n+]([O-])c1ccc(Cl)cc1[n+]2[O-] | 33% | – |
| Cc1ccc(Nc2cc3c(cc2C#N)[n+]([O-])c2cc(Cl)ccc2[n+]3[O-])cc1 | 19% | – |
| Cc1cc2c(cc1C(=O)N1CCN(c3ccccc3)CC1)[n+]([O-])c1cc(Cl)c(Cl)cc1[n+]2[O-] | 47% | – |
| COc1ccc2[nH]c3nnc(N)c-3nc2c1 | 0% | – |
| Nc1nc(N)c2nc3ccccc3nc2n1 | 0% | – |
| COC(=O)N/N=C/c1ccc2c(c1)[n+]([O-])c1cc(C#N)c(N)cc1[n+]2[O-] | 19% | – |
| N#Cc1cc2c(cc1N1CCN(c3ccc([N+](=O)[O-])cc3)CC1)[n+]([O-])c1ccc(Cl)cc1[n+]2[O-] | 3% | – |
| COc1cc2c(cc1Cl)[n+]([O-])c1cc(N3CCN(c4ccc([N+](=O)[O-])cc4)CC3)c(C#N)cc1[n+]2[O-] | 6% | – |
| COc1ccc2c(c1)[n+]([O-])c1cc(C#N)c(N3CCN(c4ccc([N+](=O)[O-])cc4)CC3)cc1[n+]2[O-] | 19% | – |
| CC1CS(=O)(=O)CCN1/N=C/c1ccc([N+](=O)[O-])o1 (stereo not drawn) [NIFURTIMOX] | – | IC50 (Trypanosoma cruzi [2]): 3.4 µM; IC50 (Trypanosoma cruzi [3]): 7.7 µM |
| COc1ccc2c(c1)[n+]([O-])c1cc(C#N)c(N)cc1[n+]2[O-] | 25% | – |
| N#Cc1cc2nc3cc(Cl)ccc3nc2cc1Cl | 100% | IC50 (Trypanosoma cruzi [2]): 3 µM; IC50 (Trypanosoma cruzi [3]): 4.5 µM |
